US9926377B2, “Anti-GPC3 antibodies and immunoconjugates” (GENENTECH, INC., priority 2014, dated 2018)
Like-named read-outs stand apart in the source and are kept apart here.

How the values were obtained:
[1] = test system: PC3; assay: Cell line sensitivity (proliferation, CellTiter-GloII), PC3; type: cell-based; details: Homo sapiens, PC-3, 120 h
Procedure: (§1) Various GPC3-expressing cell lines were tested for sensitivity to free nemorubicin derivative, PNU-159682, which has the structure:
(§2) [drawing 32] as follows. Proliferation in the presence of PNU-159682 or SG-2057 were assessed using cells plated at 1000 cells per well in 50 μl of normal growth medium in 96-well clear-bottom plates (PerkinElmer Life Sciences). Twenty-four hours later, an additional 50 μl of culture medium with serial dilutions of the drug was added to triplicate wells. Three or 5 days later, cell numbers were determined using CellTiter-GloII (Promega Corp.) and with an EnVision 2101 multilabel reader (PerkinElmer).

[2] = test system: Huh7; assay: Cell line sensitivity (proliferation, CellTiter-GloII), Huh7; type: cell-based; details: Homo sapiens, Huh-7, 120 h
Procedure: as §1, §2

[3] = test system: JHH7; assay: Cell line sensitivity (proliferation, CellTiter-GloII), JHH7; type: cell-based
Procedure: as §1, §2

[4] = test system: JHH5; assay: Cell line sensitivity (proliferation, CellTiter-GloII), JHH5; type: cell-based; details: 120 h
Procedure: as §1, §2

[5] = test system: 293S; assay: Cell line sensitivity (proliferation, CellTiter-GloII), 293S; type: cell-based; details: 120 h
Procedure: as §1, §2

[6] = test system: HepG2; assay: Cell line sensitivity (proliferation, CellTiter-GloII), HepG2; type: cell-based; details: Homo sapiens
Procedure: as §1, §2

[7] = test system: Hep3B.2.1-7; assay: Cell line sensitivity (proliferation, CellTiter-GloII), Hep3B.2.1-7; type: cell-based; details: 120 h
Procedure: as §1, §2

[8] = test system: 293_GPC3; assay: Cell line sensitivity (proliferation, CellTiter-GloII), 293_GPC3; type: cell-based; details: 120 h
Procedure: as §1, §2

[9] = test system: full-length N-terminal gD-tagged cynomolgus monkey GPC3; assay: FACS binding to cynomolgus monkey GPC3 on 293 cells; details: cynomolgus monkey GPC3 expressed on the surface of 293 cells
Chain of full-length N-terminal gD-tagged cynomolgus monkey GPC3 (as listed by the source): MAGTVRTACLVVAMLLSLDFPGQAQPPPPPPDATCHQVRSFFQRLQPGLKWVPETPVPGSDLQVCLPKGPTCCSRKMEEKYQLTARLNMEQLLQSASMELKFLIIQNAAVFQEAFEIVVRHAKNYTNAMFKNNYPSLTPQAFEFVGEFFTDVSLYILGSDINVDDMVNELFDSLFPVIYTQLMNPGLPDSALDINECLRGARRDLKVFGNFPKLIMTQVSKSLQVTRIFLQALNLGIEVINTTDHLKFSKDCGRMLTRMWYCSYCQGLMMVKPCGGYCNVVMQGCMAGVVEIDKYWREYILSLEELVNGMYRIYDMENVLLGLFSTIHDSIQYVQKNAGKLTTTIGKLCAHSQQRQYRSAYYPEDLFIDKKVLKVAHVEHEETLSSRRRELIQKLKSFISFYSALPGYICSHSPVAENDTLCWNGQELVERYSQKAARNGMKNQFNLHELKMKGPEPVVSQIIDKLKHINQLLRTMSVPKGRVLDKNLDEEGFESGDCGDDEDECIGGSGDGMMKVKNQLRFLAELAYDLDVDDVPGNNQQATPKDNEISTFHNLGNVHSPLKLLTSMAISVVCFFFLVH
Procedure: (§3) Antibodies 15G1 and 4A11 were tested for binding to full-length N-terminal gD-tagged cynomolgus monkey GPC3 and full-length N-terminal gD-tagged rat GPC3 expressed on the surface of 293 cells by FACS. Both antibodies bound to cynomolgus monkey GPC3. 15G1, but not 4A11, also bound to rat GPC3. […] The 7H1 epitope is also highly conserved between human, cynomolgus monkey, rhesus macaque, mouse, and rat GPC3, and as discussed above, antibody 7H1 detects human, cynomolgus monkey, rat, and mouse GPC3 by Western blot.

[10] = molecular target: T1, human GPC3 (Homo sapiens, UniProt P51654); assay: FACS binding to huGPC truncation constructs on 293 cells; details: huGPC(aa359-509) on 293 cells
T1 construct: C-terminal glycophosphatidylinositol anchor (GPI link) (C); expressed in transfected cells; host or cells: 293 cells
T1 sequence (P51654 359-509): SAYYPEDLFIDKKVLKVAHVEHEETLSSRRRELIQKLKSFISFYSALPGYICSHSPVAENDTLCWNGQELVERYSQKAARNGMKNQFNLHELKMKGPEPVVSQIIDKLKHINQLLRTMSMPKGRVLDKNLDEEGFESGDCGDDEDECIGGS
Excerpt: (§4) C-terminal truncation constructs of huGPC(aa359-589) were made to further refine the epitopes for antibodies 4A11 and 15G1. Three different […] truncations were made, comprising amino acids 359 to 420 of human GPC3, amino acids 359 to 470 of human GPC3, and amino acids 359 to 509 of human GPC3. The three C-terminal truncations each comprised an HSV N-terminal signal sequence (SS) and gD sequence (SEQ ID NO: 41) and C-terminal glycophosphatidylinositol anchor (GPI link). The huGPC truncation constructs were expressed on the surface of 293 cells and antibody binding was determined by FACS. An anti-gD was used as a positive control. Vector-transfected 293 cells were used as a negative control.

[11] = molecular target: T2, human GPC3 (Homo sapiens, UniProt P51654); assay: as above; details: huGPC(aa359-470) on 293 cells
T2 construct: C-terminal glycophosphatidylinositol anchor (GPI link) (C); expressed in transfected cells; host or cells: 293 cells
T2 sequence (P51654 359-470): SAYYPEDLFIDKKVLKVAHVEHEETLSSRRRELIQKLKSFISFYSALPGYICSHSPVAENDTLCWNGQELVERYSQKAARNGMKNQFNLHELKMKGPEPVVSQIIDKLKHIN
Excerpt: as §4

[12] = molecular target: T3, human GPC3 (Homo sapiens, UniProt P51654); assay: as above; details: huGPC(aa359-420) on 293 cells
T3 construct: C-terminal glycophosphatidylinositol anchor (GPI link) (C); expressed in transfected cells; host or cells: 293 cells
T3 sequence (P51654 359-420): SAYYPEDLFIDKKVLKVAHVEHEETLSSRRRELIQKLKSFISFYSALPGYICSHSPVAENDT
Excerpt: as §4

[13] = molecular target: T4, human GPC3 (Homo sapiens, UniProt P51654); assay: as above; details: huGPC(aa359-559) on 293 cells
T4 construct: C-terminal glycophosphatidylinositol anchor (GPI link) (C); expressed in transfected cells; host or cells: 293 cells
T4 sequence (P51654 359-559): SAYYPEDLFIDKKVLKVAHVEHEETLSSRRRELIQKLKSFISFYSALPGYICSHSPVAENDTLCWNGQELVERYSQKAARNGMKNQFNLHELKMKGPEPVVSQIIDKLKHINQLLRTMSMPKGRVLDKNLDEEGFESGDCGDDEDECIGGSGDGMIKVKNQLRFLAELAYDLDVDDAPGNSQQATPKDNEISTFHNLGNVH
Excerpt: as §4

[14] = molecular target: T5, full-length N-terminal gD-tagged rat GPC3 (Rattus norvegicus, UniProt P13265); assay: FACS binding to rat GPC3 on 293 cells; details: rat GPC3 expressed on the surface of 293 cells
T5 construct: full-length N-terminal gD-tagged rat GPC3 expressed on the surface of 293 cells by FACS; gD (N); expressed in transfected cells; host or cells: 293 cells
T5 sequence (P13265 with tags, fused parts or gaps limits assumed): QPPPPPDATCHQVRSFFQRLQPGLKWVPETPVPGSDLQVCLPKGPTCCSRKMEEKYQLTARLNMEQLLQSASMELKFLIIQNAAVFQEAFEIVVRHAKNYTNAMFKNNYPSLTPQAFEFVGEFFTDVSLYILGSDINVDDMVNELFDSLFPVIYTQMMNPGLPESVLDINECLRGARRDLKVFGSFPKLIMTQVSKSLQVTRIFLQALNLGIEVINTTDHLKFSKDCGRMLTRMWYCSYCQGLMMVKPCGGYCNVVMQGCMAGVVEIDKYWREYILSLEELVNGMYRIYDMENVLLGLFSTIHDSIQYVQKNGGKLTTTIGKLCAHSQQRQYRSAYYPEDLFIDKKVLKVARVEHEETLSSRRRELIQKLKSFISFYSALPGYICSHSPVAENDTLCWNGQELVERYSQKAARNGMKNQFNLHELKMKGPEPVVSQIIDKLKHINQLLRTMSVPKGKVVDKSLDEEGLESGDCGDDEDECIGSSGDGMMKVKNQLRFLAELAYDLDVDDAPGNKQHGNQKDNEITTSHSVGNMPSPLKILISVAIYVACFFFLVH
Procedure: as §3

COc1cccc2c1C(=O)c1c(O)c3c(c(O)c1C2=O)C[C@@](O)(C(=O)CO)C[C@@H]3O[C@H]1C[C@H]2[C@H](O[C@@H]3[C@@H](OC)OCCN32)[C@H](C)O1 [PNU-159682]
EC50 ([1]; PC3, free drug, cell numbers three or 5 days after drug addition, read-out: EC50): 0.051 nM
EC50 ([2]; Huh7, free drug, cell numbers three or 5 days after drug addition, read-out: EC50): 0.029 nM
EC50 ([3]; 120 h, JHH7, free drug, cell numbers three or 5 days after drug addition, read-out: EC50): 0.038 nM
EC50 ([4]; JHH5, free drug, cell numbers three or 5 days after drug addition, read-out: EC50): 0.031 nM
EC50 ([5]; 293S, free drug, cell numbers three or 5 days after drug addition, read-out: EC50): 0.022 nM
EC50 ([6]; 120 h, HepG2, free drug, cell numbers three or 5 days after drug addition, read-out: EC50): 0.029 nM
EC50 ([7]; Hep3B.2.1-7, free drug, cell numbers three or 5 days after drug addition, read-out: EC50): 0.042 nM
EC50 ([8]; 293_GPC3, free drug, cell numbers three or 5 days after drug addition, read-out: EC50): 0.019 nM

C=C1C[C@H]2C=Nc3cc(OCCCCCOc4cc5c(cc4OC)C(=O)N4CC(=C)C[C@H]4C=N5)c(OC)cc3C(=O)N2C1 [SG-2057]
EC50 [1]: 0.122 nM
EC50 [2]: 0.147 nM
EC50 ([3]; JHH7, 120 h): 0.135 nM
EC50 [4]: 0.105 nM
EC50 [5]: 0.056 nM
EC50 ([6]; HepG2, 120 h): 0.029 nM
EC50 [7]: 0.474 nM
EC50 [8]: 0.034 nM

B1: 4A11: anti-GPC3 monoclonal antibody; heavy and light chain variable regions SEQ ID NOs: 10 and 11 (antibody, V domains shown)
VH: EVQLQQSAAELARPGASVRMSCRTSGYTFTTYTIHWMKQRPGQGLEWIGYINPNGGYTEYNQKFRDRTTLTADKSSSTAYMQLSSLTSEDSAVYYCTRNFDYWGQGTTLTVSS
VL: DIVMTQSPSSMYASLGERVTITCKASQDINSYLSWFQQKPGKSPKTLIYRVNRLVDGVPSRFSGSGSGQDYSLTISSLEYEDVGIYYCLQYDEFPLTLGAGTKLELK
Binding by FACS [9]: bound
Binding by FACS [10]: bound
Binding by FACS [11]: not
Binding by FACS [12]: not
Binding by FACS [13]: bound
Binding by FACS [14]: not

B2: 15G1: anti-GPC3 monoclonal antibody; heavy and light chain variable regions SEQ ID NOs: 18 and 19 (antibody, V domains shown)
VH: EVQLLETGGGLVQPGGSRGLSCEGSGFTFSGFWMSWVRQTPGKTLEWIGDINSDGSSINYAPSIKDRFTIFRDNDKSILYLQMTNVRSEDTGTYFCVTTYGDYWGQGTTLTVSS
VL: DIVMTQSQKFMSTSVGDRVSVTCKASQNVGSHVGWYQQKSGQSPKALIYSASNRYIGVPDRFTGSGSGTDFTLTISNVQSEDLAEYFCQQYHIYPYTFGGGTRLEIK
Binding by FACS [9]: bound
Binding by FACS [10]: bound
Binding by FACS [11]: bound
Binding by FACS [12]: not
Binding by FACS [13]: bound
Binding by FACS [14]: bound
